Experimental data published in patent US20170190671A1, “BIS(ARYL)CATECHOL DERIVATIVES AS HERBICIDES” (E I DU PONT DE NEMOURS AND COMPANY, priority 2014, published 2017).

Key:
Format in all cases: in vivo
[1] = system: Italian ryegrass (Lolium multiflorum); assay: Test A preemergence; settings: Lolium multiflorum, pre-emergence, 240 h
Excerpt: (§1) Seeds of plant species selected from barnyardgrass (Echinochloa crus-galli), kochia (Kochia scoparia), ragweed (common ragweed, Ambrosia elatior), Italian ryegrass (Lolium multiflorum), large (Lg) crabgrass (Digitaria sanguinalis), giant foxtail (Setaria faberii), morningglory (Ipomoea spp.), pigweed (Amaranthus retroflexus), velvetleaf (Abutilon theophrasti), wheat (Triticum aestivum), and corn (Zea mays) were planted into a blend of loam soil and sand and treated preemergence with a directed soil spray using test chemicals formulated in a non-phytotoxic solvent mixture which included a surfactant.
(§2) At the same time, plants selected from these crop and weed species and also blackgrass (Alopecurus myosuroides), and galium (catchweed bedstraw, Galium aparine) were planted in pots containing the same blend of loam soil and sand and treated with postemergence applications of test chemicals formulated in the same manner. Plants ranged in height from 2 to 10 cm and were in the one- to two-leaf stage for the postemergence treatment. Treated plants and untreated controls were maintained in a greenhouse for approximately 10 days, after which time all treated plants were compared to untreated controls and visually evaluated for injury. Plant response ratings, summarized in Table A, are based on a 0 to 100 scale where 0 is no effect and 100 is complete control. A dash (-) response means no test result.

[2] = system: barnyardgrass (Echinochloa crus-galli); assay: Test A preemergence; settings: Echinochloa crus-galli, pre-emergence, 240 h
Excerpt: as §1, §2

[3] = system: giant foxtail (Setaria faberii); assay: Test A preemergence; settings: Setaria faberi, pre-emergence, 240 h
Excerpt: as §1, §2

kochia (Kochia scoparia) [4] = assay: Test A preemergence; settings: Bassia scoparia, pre-emergence, 240 h
Excerpt: as §1, §2

[5] = system: pigweed (Amaranthus retroflexus); assay: Test A preemergence; settings: Amaranthus retroflexus, pre-emergence, 240 h
Excerpt: as §1, §2

[6] = system: ragweed (common ragweed, Ambrosia elatior); assay: Test A preemergence; settings: Ambrosia artemisiifolia, pre-emergence, 240 h
Excerpt: as §1, §2

[7] = system: Italian ryegrass (Lolium multiflorum); assay: Test A postemergence; settings: Lolium multiflorum, post-emergence, 240 h, 0 to 100 scale, read-out: Plant response rating, Ryegrass, Italian
Excerpt: as §1, §2

[8] = system: barnyardgrass (Echinochloa crus-galli); assay: Test A postemergence; settings: Echinochloa crus-galli, post-emergence, 240 h, 0 to 100 scale, read-out: Plant response rating, Barnyardgrass
Excerpt: as §1, §2

[9] = system: blackgrass (Alopecurus myosuroides); assay: Test A postemergence; settings: Alopecurus myosuroides, post-emergence, 240 h, 0 to 100 scale, read-out: Plant response rating, Blackgrass
Excerpt: as §1, §2

corn (Zea mays) = assay: Test A postemergence; settings: Zea mays, post-emergence, 240 h, 0 to 100 scale
Excerpt: as §1, §2

[10] = system: galium (catchweed bedstraw, Galium aparine); assay: Test A postemergence; settings: Galium, post-emergence, 240 h, 0 to 100 scale, read-out: Plant response rating, Galium
Excerpt: as §1, §2

[11] = system: giant foxtail (Setaria faberii); assay: Test A postemergence; settings: Setaria faberi, post-emergence, 240 h, 0 to 100 scale, read-out: Plant response rating, Foxtail, Giant
Excerpt: as §1, §2

kochia (Kochia scoparia) [12] = assay: Test A postemergence; settings: Bassia scoparia, post-emergence, 240 h, 0 to 100 scale, read-out: Plant response rating, Kochia
Excerpt: as §1, §2

[13] = system: pigweed (Amaranthus retroflexus); assay: Test A postemergence; settings: Amaranthus retroflexus, post-emergence, 240 h, 0 to 100 scale, read-out: Plant response rating, Pigweed
Excerpt: as §1, §2

[14] = system: ragweed (common ragweed, Ambrosia elatior); assay: Test A postemergence; settings: Ambrosia artemisiifolia, post-emergence, 240 h, 0 to 100 scale, read-out: Plant response rating, Ragweed
Excerpt: as §1, §2

[15] = system: wheat (Triticum aestivum); assay: Test A postemergence; settings: Triticum aestivum, post-emergence, 240 h, 0 to 100 scale, read-out: Plant response rating, Wheat
Excerpt: as §1, §2

For `N#Cc1cccc(Oc2ncc(Br)cn2)c1Oc1ccc(Br)cn1` [Compound 12], the pest or weed control at 31 g/ha ([1]; 31 g ai/ha, 0 to 100 scale (0 no effect, 100 complete control), read-out: Ryegrass, Italian plant response rating) was 0%, the pest or weed control at 125 g/ha ([1]; 125 g ai/ha, 0 to 100 scale, read-out: Plant response rating, Ryegrass, Italian) was 0% and the pest or weed control at 31 g/ha ([2]; 31 g ai/ha, 0 to 100 scale (0 no effect, 100 complete control), read-out: Barnyardgrass plant response rating) was 0%. It also gave a pest or weed control at 125 g/ha ([2]; 125 g ai/ha, 0 to 100 scale, read-out: Plant response rating, Barnyardgrass) of 30%, a pest or weed control at 31 g/ha ([3]; 31 g ai/ha, 0 to 100 scale (0 no effect, 100 complete control), read-out: Foxtail, Giant plant response rating) of 0% and a pest or weed control at 125 g/ha ([3]; 125 g ai/ha, 0 to 100 scale, read-out: Plant response rating, Foxtail, Giant) of 70%. For the same compound, the pest or weed control at 31 g/ha (kochia (Kochia scoparia) [4]; 31 g ai/ha, 0 to 100 scale (0 no effect, 100 complete control), read-out: Kochia plant response rating) was 0%, the pest or weed control at 125 g/ha (kochia (Kochia scoparia) [4]; 125 g ai/ha, 0 to 100 scale, read-out: Plant response rating, Kochia) was 20% and the pest or weed control at 31 g/ha ([5]; 31 g ai/ha, 0 to 100 scale (0 no effect, 100 complete control), read-out: Pigweed plant response rating) was 60%. For the same compound, the pest or weed control at 125 g/ha ([5]; 125 g ai/ha, 0 to 100 scale, read-out: Plant response rating, Pigweed) was 100%, the pest or weed control at 31 g/ha ([6]; 31 g ai/ha, 0 to 100 scale (0 no effect, 100 complete control), read-out: Ragweed plant response rating) was 0% and the pest or weed control at 125 g/ha ([6]; 125 g ai/ha, 0 to 100 scale, read-out: Plant response rating, Ragweed) was 0%. The pest or weed control at 31 g/ha ([7]; 31 g ai/ha) was 0%, the pest or weed control at 125 g/ha ([7]; 125 g ai/ha) was 0% and the pest or weed control at 31 g/ha ([8]; 31 g ai/ha) was 0%. For the same compound, the pest or weed control at 125 g/ha ([8]; 125 g ai/ha) was 20%, the pest or weed control at 31 g/ha ([9]; 31 g ai/ha) was 0% and the pest or weed control at 125 g/ha ([9]; 125 g ai/ha) was 50%. For the same compound, the Corn plant response rating (crop injury, 0 = no effect, 100 = complete kill) at 31 g/ha (corn (Zea mays); 31 g ai/ha) was 0%, the Corn plant response rating (crop injury, 0 = no effect, 100 = complete kill) at 125 g/ha (corn (Zea mays); 125 g ai/ha) was 20% and the pest or weed control at 31 g/ha ([10]; 31 g ai/ha) was 10%. It also gave a pest or weed control at 125 g/ha ([10]; 125 g ai/ha) of 50%, a pest or weed control at 31 g/ha ([11]; 31 g ai/ha) of 0% and a pest or weed control at 125 g/ha ([11]; 125 g ai/ha) of 40%. It also gave a pest or weed control at 31 g/ha (kochia (Kochia scoparia) [12]; 31 g ai/ha) of 0%, a pest or weed control at 125 g/ha (kochia (Kochia scoparia) [12]; 125 g ai/ha) of 20% and a pest or weed control at 31 g/ha ([13]; 31 g ai/ha) of 10%. It also gave a pest or weed control at 125 g/ha ([13]; 125 g ai/ha) of 100%, a pest or weed control at 31 g/ha ([14]; 31 g ai/ha) of 0% and a pest or weed control at 125 g/ha ([14]; 125 g ai/ha) of 0%. For the same compound, the plant injury at 31 g/ha ([15]; 31 g ai/ha) was 0% and the plant injury at 125 g/ha ([15]; 125 g ai/ha) was 20%.
